Measured values: patent publication US6686350B1, “Cell adhesion inhibitors” (Biogen, Inc., priority 1996, dated 2004)

target: IIb/IIIa (Homo sapiens, UniProt P05106+P08514); test: IIb/IIIa inhibitory activity (receptor-ligand binding or platelet aggregation); details: qualitative statement
Text: In a basic embodiment, therefore, one skilled in the art first identifies a compound having IIb/IIIa inhibitory activity. Compounds having IIb/IIIa inhibitory activity are well known to those skilled in the art, and are readily available, see, e.g., Table 2 and the references incorporated herein in the Background of the Invention. For purposes of this invention, one skilled in the art may use any of these known compounds. Alternatively, one may determine in assays known to those skilled in the art whether a particular compound has IIB/IIIa activity. If the assay is positive, then the scaffold will be useful in the present invention. Assays for IIb/IIIa inhibitory activity are well known in the art. […] (WO 093/00095, specifically incorporated herein by reference.) Additionally, the aforementioned binding to ligands can be assessed by one skilled in the art in a platelet aggregation assay.

Chain of IIb/IIIa (P08514 32-887 limits assumed): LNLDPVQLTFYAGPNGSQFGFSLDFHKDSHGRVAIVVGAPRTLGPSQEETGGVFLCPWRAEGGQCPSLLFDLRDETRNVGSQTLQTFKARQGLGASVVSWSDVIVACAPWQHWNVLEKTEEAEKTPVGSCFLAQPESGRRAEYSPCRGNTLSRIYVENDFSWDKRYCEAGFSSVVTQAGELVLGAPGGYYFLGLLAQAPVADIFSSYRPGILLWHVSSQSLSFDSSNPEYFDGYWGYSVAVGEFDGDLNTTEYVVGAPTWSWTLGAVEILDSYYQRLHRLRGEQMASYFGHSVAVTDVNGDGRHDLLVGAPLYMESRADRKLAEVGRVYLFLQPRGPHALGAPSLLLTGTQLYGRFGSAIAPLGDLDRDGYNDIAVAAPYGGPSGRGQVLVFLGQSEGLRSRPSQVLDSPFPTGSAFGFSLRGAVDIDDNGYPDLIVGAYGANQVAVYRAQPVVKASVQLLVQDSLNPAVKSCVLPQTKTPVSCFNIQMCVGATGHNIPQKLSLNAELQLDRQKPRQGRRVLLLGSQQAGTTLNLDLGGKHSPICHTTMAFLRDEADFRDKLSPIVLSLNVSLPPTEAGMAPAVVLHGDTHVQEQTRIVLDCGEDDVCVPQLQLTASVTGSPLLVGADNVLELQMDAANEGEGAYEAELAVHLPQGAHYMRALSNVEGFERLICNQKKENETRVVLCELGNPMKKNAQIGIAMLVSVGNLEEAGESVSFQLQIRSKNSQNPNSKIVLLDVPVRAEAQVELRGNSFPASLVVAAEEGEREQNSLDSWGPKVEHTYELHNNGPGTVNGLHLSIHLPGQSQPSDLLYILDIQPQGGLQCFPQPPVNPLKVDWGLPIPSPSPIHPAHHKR
Chain of IIb/IIIa (P08514 891-1039 limits assumed): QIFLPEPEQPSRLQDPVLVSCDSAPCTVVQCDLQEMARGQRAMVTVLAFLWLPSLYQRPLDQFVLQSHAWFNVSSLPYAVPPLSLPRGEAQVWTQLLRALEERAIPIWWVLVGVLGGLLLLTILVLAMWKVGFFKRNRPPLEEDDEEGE
Chain of IIb/IIIa (P05106 27-788): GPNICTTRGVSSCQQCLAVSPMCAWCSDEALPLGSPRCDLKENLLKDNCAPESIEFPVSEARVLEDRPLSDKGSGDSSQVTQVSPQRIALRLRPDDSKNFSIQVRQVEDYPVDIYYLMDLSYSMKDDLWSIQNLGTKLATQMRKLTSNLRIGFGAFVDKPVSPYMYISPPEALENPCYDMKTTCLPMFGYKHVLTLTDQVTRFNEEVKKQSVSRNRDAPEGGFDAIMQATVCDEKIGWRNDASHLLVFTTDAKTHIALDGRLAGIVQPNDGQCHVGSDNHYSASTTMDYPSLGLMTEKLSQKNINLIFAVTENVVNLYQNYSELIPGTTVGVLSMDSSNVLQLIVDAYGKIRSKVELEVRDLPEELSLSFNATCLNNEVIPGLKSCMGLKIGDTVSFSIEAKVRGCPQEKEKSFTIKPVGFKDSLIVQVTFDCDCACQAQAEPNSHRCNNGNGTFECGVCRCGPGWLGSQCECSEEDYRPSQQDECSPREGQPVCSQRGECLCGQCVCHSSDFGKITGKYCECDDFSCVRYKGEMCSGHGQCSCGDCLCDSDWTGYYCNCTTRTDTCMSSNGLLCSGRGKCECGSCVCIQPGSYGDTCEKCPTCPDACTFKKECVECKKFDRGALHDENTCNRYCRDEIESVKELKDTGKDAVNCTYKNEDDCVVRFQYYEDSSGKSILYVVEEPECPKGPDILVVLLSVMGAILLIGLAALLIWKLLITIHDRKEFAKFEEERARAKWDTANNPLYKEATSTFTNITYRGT

Question: Which IIb/IIIa inhibitory activity does the source give for CN(CC(=O)N1CCC(C2CCNCC2)CC1)C(=O)CN(CCC(=O)O)C(=O)c1ccccc1 [Compound B] here?
Answer: potent IIB/IIIa inhibitor

tested on: not given; test: not given; details: not given

Question: Which melting point does the source give for COCCC(=O)N(CCC(=O)O)CC(=O)N(CCC(C)C)CC(=O)Nc1ccc(NC(=O)Nc2ccccc2C)cc1 [AY44] here?
Answer: 164 to 166 °C

target: T1, VLA-4 (Homo sapiens, UniProt P05556+P13612); test: VLA-4 direct binding assay (VCAM-IgG alkaline phosphatase conjugate binding to Jurkat cells); details: Table 1, Structure-Activity; assay and unit inferred; read-out: Act
T1 construct: endogenous in cells; host or cells: Jurkat cells
Text: A direct binding assay may also be employed to quantitate the inhibitory activity of the compounds of this invention. (“DBA”) In direct binding assays, for example, a VCAM-IgG fusion protein containing the first two immunoglobulin domains of VCAM (D1D2) attached above the hinge region of an IgG1 molecule (“VCAM 2D-IgG”), is conjugated to a marker enzyme, such as alkaline phosphatase (“AP”). The synthesis of this VCAM-IgG fusion is described in PCT publication WO 90/13300, the disclosure of which is herein incorporated by reference. The conjugation of that fusion to a marker enzyme can be achieved by cross-linking methods well-known in the art.
The VCAM-IgG enzyme conjugate is then placed in the wells of a multi-well filtration plate, such as that contained in the Millipore Multiscreen Assay System (Millipore Corp., Bedford, Mass.). Varying concentrations of the test inhibitory compound are then added to the wells followed by addition of VLA-4-expressing cells. The cells, compound and VCAM-IgG enzyme conjugate are mixed together and allowed to incubate at room temperature.
Following incubation, the wells are vacuum drained, leaving behind the cells and any bound VCAM. Quantitation of bound VCAM is determined by adding an appropriate calorimetric substrate for the enzyme conjugated to VCAM-IgG and determining the amount of reaction product. Decreased reaction product indicates increased binding inhibitory activity. The protocol is described more specifically below:
1. Block a 96 well Millipore Multiscreen Assay System filtration plate^1 with 200:l/well of blocking buffer (1×Phosphate Buffered Saline, 0.1%Tween 20, 1%BSA) for at least 1 hour at room temperature.
2. Drain the plate with the vacuum manifold, and wash with 200 μl/well of assay buffer (Tris Buffered Saline, 0.1% BSA, 2 mM glucose, 10 mM HEPES, pH 7.5) draining the plate in between. Repeat twice. Then blot the plate bottom on paper to remove excess buffer.
3. Prepare a 4 μg/ml VCAMIg-AP solution (Alkaline phosphatase coupled to VCAMIg) in assay buffer and filter with a 0.2:low protein binding syringe filter (Gelman Sciences #4454). From this stock, prepare a 0.4 μg/ml working solution of VCAMIg-AP in assay buffer. Add 25:l of 0.4 μg/ml VCAMIg-AP to every well.
5. Prepare dilutions of compounds to be tested in assay buffer. Concentrations should be 4× the desired final concentration and run in triplicate. Add 25 μl of the compound dilutions to designated wells.
7. Jurkat cells are centrifuged to remove cell culture media and washed once in assay buffer. Resuspend the washed Jurkat cells to a concentration of 8×10^6/ml in assay buffer containing 2 mM MnCl2. Pipeting the mixture up and down to ensure a uniform cell suspension. Add 50:l of cell suspension to each well except the NSB wells.
8. Gently tap the sides of the plate to mix well contents. Incubate the plate for 60 minutes at room temperature (RT).
9. Place the plate on the vacuum manifold to drain the well contents. Wash twice with 100 μl/well of wash buffer (assay buffer containing 1 mM MnCl2). Drain the plate and blot on paper towels.
10. Add 10 mg/ml of 4-Nitro phenyl phosphate to Substrate buffer (0.1M glycine, 1 mM ZnCl2, 1 mM MgCl2, pH 10.5). Add 100 μl/well and incubate for exactly 30 minutes at RT.
11. To stop the reaction, add 100 μl/well of 3N NaOH.
12. Read the 96-well plate in a Molecular Devices ELISA platereader at 405 nm. Analyze data with SoftMax software.

T1 sequence (P13612 34-1032): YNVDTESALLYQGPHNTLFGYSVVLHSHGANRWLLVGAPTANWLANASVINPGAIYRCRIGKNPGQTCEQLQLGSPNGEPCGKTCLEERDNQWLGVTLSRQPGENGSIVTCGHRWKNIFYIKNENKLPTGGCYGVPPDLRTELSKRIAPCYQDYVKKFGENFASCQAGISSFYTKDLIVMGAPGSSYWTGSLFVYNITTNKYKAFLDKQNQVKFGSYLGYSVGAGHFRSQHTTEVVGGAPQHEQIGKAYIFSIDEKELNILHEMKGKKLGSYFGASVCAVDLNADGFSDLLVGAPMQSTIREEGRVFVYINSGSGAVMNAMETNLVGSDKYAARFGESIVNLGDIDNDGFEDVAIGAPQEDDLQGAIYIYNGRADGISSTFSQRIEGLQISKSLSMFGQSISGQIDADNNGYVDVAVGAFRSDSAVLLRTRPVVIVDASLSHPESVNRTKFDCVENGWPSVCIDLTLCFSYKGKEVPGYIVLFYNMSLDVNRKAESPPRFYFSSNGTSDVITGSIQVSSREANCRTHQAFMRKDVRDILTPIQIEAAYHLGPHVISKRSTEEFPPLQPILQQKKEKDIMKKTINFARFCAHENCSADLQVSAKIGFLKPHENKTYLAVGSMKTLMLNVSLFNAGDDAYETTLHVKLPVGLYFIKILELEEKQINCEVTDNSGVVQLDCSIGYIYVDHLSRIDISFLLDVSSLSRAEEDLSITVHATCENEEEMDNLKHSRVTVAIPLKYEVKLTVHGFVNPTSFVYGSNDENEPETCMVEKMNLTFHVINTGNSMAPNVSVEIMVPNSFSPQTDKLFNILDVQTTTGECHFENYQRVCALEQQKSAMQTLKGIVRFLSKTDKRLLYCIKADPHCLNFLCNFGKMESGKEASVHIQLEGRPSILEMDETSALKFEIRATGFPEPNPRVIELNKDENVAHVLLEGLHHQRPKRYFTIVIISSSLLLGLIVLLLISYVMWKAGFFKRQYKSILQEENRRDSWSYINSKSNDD
T1 sequence (P05556 21-798): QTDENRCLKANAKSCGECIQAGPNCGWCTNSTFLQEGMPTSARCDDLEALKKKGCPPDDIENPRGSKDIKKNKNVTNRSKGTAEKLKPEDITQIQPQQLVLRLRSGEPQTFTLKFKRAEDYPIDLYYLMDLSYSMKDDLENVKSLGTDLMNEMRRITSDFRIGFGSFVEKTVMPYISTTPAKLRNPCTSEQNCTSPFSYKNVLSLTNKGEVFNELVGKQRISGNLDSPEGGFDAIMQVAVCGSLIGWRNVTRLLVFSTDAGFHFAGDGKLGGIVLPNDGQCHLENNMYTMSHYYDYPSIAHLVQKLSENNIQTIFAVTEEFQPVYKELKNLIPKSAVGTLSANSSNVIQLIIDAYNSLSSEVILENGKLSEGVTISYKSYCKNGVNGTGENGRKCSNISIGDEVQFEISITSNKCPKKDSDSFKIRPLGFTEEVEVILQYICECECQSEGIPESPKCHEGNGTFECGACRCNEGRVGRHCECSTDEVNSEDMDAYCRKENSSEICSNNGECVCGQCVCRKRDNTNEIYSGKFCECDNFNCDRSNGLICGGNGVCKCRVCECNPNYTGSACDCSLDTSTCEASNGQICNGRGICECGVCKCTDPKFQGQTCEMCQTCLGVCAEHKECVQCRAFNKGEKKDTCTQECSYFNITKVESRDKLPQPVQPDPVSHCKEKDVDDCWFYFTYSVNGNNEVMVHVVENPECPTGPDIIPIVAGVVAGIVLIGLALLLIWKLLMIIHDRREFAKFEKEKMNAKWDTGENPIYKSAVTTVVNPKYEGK

Question: Which IC50 does the source give for Cc1ccccc1NC(=O)Nc1ccc(NC(=O)C2CC2C(=O)N[C@@H](CC(=O)O)c2ccc3c(c2)OCO3)cc1 (stereo partly drawn) [SX25] here?
Answer: 0.81 µM

Question: For Cc1ccccc1NC(=O)Nc1ccc(N2CC[C@@H](CC(=O)N[C@H](C)CC(=O)O)C2=O)cc1 [SX26], which IC50 is on record?
Answer: 0.769 µM

Question: With COc1ccc(C(CC(=O)O)NC(=O)C(CC(=O)NCc2ccccc2)CC(C)C)cc1 (stereo not drawn) [SX28] as the compound, how does the IC50 read?
Answer: 0.717 µM

Question: With COc1ccc([C@H](CC(=O)O)NC(=O)C(CC(=O)Nc2ccc(COCc3ccccc3)cc2)CC(C)C)cc1OC (stereo partly drawn) [SX29] as the compound, how does the IC50 read?
Answer: 0.7 µM

Question: For COc1ccc(C(CC(=O)O)NC(=O)[C@@H](CC(=O)Nc2ccc(COc3ccccc3C)cc2)CC(C)C)cc1OC (stereo partly drawn) [SX31], which IC50 is on record?
Answer: 0.68 µM

Question: Which IC50 does the source give for COc1ccc(C(CC(=O)O)NC(=O)C(CC(=O)Nc2ccc(CCSc3ccccc3C)cc2)CC(C)C)cc1OC (stereo not drawn) [SX32] here?
Answer: 0.66 µM

Question: With Cc1ccccc1NC(=O)Nc1ccc(CNC(=O)C(CC(=O)NC(CC(=O)O)c2ccc3c(c2)OCO3)CC(C)C)cc1 (stereo not drawn) [SX34] as the compound, how does the IC50 read?
Answer: 0.5 µM

Question: With Cc1ccccc1NC(=O)Nc1ccc(NC(=O)CCC(=O)N[C@H](C)CC(=O)O)cc1 [SX35] as the compound, how does the IC50 read?
Answer: 0.468 µM

Question: For COc1ccc([C@H](CC(=O)O)NC(=O)C(O)CC(=O)Nc2ccc(NC(=O)Nc3ccccc3C)cc2)cc1OC (stereo partly drawn) [SX38], which IC50 is on record?
Answer: 0.404 µM

Question: Which IC50 does the source give for COc1ccc([C@H](CC(=O)O)NC(=O)C(CC(=O)Nc2ccc(CCc3ccccc3C)cc2)CC(C)C)cc1OC (stereo partly drawn) [SX39] here?
Answer: 0.397 µM

Question: With COc1ccc([C@H](CC(=O)O)NC(=O)C(CC(=O)Nc2ccc(/C=C/c3ccccc3C)cc2)CC(C)C)cc1OC (stereo partly drawn) [SX40] as the compound, how does the IC50 read?
Answer: 0.335 µM

Question: With COc1ccc([C@H](CC(=O)O)NC(=O)C(CC(=O)Nc2ccc(NC(=O)Nc3ccccc3)cc2)CC(C)C)cc1OC (stereo partly drawn) [SX41] as the compound, how does the IC50 read?
Answer: 0.31 µM

Question: With COc1ccc([C@H](CC(=O)O)NC(=O)C(CC(=O)Nc2ccc(NC(=O)NS(=O)(=O)c3ccccc3C)cc2)CC(C)C)cc1OC (stereo partly drawn) [SX42] as the compound, how does the IC50 read?
Answer: 0.298 µM

Question: With CC(CC(=O)Nc1ccc(NC(=O)Nc2ccccc2)cc1)C(=O)N[C@H](C)CC(=O)O (stereo partly drawn) [SX43] as the compound, how does the IC50 read?
Answer: 0.247 µM

Question: With COc1ccc(C(CC(=O)O)NC(=O)[C@@H](CC(=O)Nc2ccc(NC(=O)Nc3ccccc3C)cc2)CC(C)C)cc1OC (stereo partly drawn) [SX44] as the compound, how does the IC50 read?
Answer: 0.233 µM

Question: Which IC50 does the source give for COc1ccc([C@H](CC(=O)O)NC(=O)CCC(=O)Nc2ccc(NC(=O)Nc3ccccc3)c(O)c2)cc1OC [SX45] here?
Answer: 0.216 µM

Question: With COc1ccc([C@H](CC(=O)O)NC(=O)C(CC(=O)Nc2ccc(NC(=O)Nc3ncccc3C)cc2)CC(C)C)cc1OC (stereo partly drawn) [SX46] as the compound, how does the IC50 read?
Answer: 0.2 µM

Question: With COc1ccc(C(CC(=O)O)NC(=O)C(CC(=O)Nc2ccc(NC(=O)Nc3ccccc3C)cc2)NS(C)(=O)=O)cc1OC (stereo not drawn) [SX47] as the compound, how does the IC50 read?
Answer: 0.196 µM

Question: With Cc1ccccc1NC(=O)Nc1ccc(N(C)C(=O)CCC(=O)N[C@H](C)CC(=O)O)cc1 [SX48] as the compound, how does the IC50 read?
Answer: 0.195 µM

Question: With Cc1ccccc1NC(=O)Nc1ccc(NC(=O)CC(CC(C)C)C(=O)NC(C)CC(=O)O)cc1 (stereo not drawn) [SX50] as the compound, how does the IC50 read?
Answer: 0.167 µM

Question: With COc1ccc(C(CC(=O)O)NC(=O)CCC(=O)Nc2ccc(NC(=O)Nc3ccccc3C)cc2)cc1OC (stereo not drawn) [SX51] as the compound, how does the IC50 read?
Answer: 0.142 µM

Question: With COc1ccc([C@H](CC(=O)O)NC(=O)C(C)CC(=O)Nc2ccc(NC(=O)Nc3ccccc3)cc2)cc1OC (stereo partly drawn) [SX53] as the compound, how does the IC50 read?
Answer: 0.065 µM

Question: For C=CC[C@H](CC(=O)O)NC(=O)C(C)CC(=O)Nc1ccc(NC(=O)Nc2ccccc2C)cc1 (stereo partly drawn) [SX54], which IC50 is on record?
Answer: 0.0585 µM

Question: For Cc1ccccc1NC(=O)Nc1ccc(NC(=O)C[C@@H](CC(C)C)C(=O)NC(CC(=O)O)c2ccc3c(c2)OCO3)cc1 (stereo partly drawn) [SX56], which IC50 is on record?
Answer: 0.055 µM

Question: With Cc1ccccc1NC(=O)Nc1ccc(CC(=O)Nc2ccccc2OCCC(=O)O)cc1 [UX1] as the compound, how does the IC50 read?
Answer: 4.5 µM
